According to ChEMBL document CHEMBL1155947, “Discovery of a novel series of benzoic acid derivatives as potent and selective human beta3 adrenergic receptor agonists with good oral bioavailability. 3. Phenylethanolaminotetraline (PEAT) skeleton containing biphenyl or biphenyl ether moiety” (J Med Chem, 2008):

Key:
[1] = molecular target: Beta-1 adrenergic receptor (Homo sapiens, UniProt P08588)
Description: Agonist activity at human cloned beta-1 adrenergic receptor expressed in CHO cells assessed as cAMP accumulation

[2] = molecular target: Beta-3 adrenergic receptor (Homo sapiens, UniProt P13945); experiment: Agonist activity at human cloned beta3 adrenergic receptor expressed in CHO cells assessed as cAMP accumulation; type: functional, cell-based
Sequence of Beta-3 adrenergic receptor (P13945 whole entry): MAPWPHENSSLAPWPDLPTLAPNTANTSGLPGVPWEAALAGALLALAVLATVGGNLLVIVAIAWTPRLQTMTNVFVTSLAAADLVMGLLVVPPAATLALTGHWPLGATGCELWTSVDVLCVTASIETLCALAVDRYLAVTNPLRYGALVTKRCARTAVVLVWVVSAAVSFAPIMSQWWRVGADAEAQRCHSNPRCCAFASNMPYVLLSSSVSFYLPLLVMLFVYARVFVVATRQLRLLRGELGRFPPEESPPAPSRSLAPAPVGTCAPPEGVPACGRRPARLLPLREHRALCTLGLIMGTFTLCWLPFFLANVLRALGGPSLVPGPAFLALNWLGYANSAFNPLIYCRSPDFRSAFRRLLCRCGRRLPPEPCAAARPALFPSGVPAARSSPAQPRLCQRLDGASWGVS

Homo sapiens = organism: Homo sapiens; experiment: Ratio of EC50 for human cloned beta-1 adrenergic receptor to EC50 for human cloned beta3 adrenergic receptor
[3] = molecular target: Beta-2 adrenergic receptor (Homo sapiens, UniProt P07550); experiment: Agonist activity at human beta2 adrenergic receptor expressed in CHO cells assessed as cAMP accumulation; type: functional, cell-based
Sequence of Beta-2 adrenergic receptor (P07550 whole entry): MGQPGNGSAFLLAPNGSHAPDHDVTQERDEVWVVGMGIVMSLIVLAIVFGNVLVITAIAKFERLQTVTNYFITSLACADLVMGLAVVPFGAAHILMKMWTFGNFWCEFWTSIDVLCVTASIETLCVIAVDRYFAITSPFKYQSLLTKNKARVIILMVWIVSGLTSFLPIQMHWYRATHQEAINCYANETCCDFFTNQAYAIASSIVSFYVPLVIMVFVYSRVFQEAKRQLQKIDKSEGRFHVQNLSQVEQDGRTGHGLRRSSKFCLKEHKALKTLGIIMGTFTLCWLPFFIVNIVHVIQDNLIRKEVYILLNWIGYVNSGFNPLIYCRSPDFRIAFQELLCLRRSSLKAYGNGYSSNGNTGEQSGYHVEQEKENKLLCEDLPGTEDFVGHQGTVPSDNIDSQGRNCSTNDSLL

[4] = AUC (0 to 24 hrs) in dog at 0.32 mg/kg, po by cassette assay; type: ADME, organism-based, Canis lupus familiaris; set-up: time < 24 hr, dose 0.32 mg/kg, route oral; settings: plasma
[5] = Total clearance in dog at 0.1 mg/mL, iv by cassette assay; type: ADME, organism-based, Canis lupus familiaris; settings: in vivo
[6] = Bioavailability in dog at 0.1 mg/mL, iv by cassette assay; type: ADME, organism-based, Canis lupus familiaris; settings: in vivo
[7] = Cmax in dog at 0.32 mg/kg, po by cassette assay; type: ADME, organism-based, Canis lupus familiaris; set-up: dose 0.32 mg/kg, route oral; settings: in vivo
[8] = Terminal half life in dog at 0.1 mg/mL, iv by cassette assay; type: ADME, organism-based, Canis lupus familiaris; settings: in vivo
Canis familiaris [9] = experiment: Ratio of Cmax for drug to Cmax for 4-((7S)-7-{[(2R)-2-(3-Chlorophenyl)-2-hydroxyethyl]amino}-5,6,7,8-tetrahydro-2-naphthalenyl)benzoic acid hydrochloride in dog at 0.1 or 0.20 mg/kg, po by cassette dosing assay; type: ADME, organism-based, Canis lupus familiaris; set-up: dose 0.2 mg/kg, route oral; settings: in vivo, 0.2 mg/kg
Canis familiaris [10] = experiment: Ratio of AUC for drug to AUC for 4-((7S)-7-{[(2R)-2-(3-Chlorophenyl)-2-hydroxyethyl]amino}-5,6,7,8-tetrahydro-2-naphthalenyl)benzoic acid hydrochloride in dog at 0.1 or 0.20 mg/kg, po by cassette dosing assay; type: ADME, organism-based, Canis lupus familiaris; set-up: dose 0.2 mg/kg, route oral; settings: in vivo, 0.2 mg/kg
Canis familiaris [11] = experiment: Ratio of Cmax for drug to Cmax for 3-[((7S)-7-{[(2R)-2-(3-Chlorophenyl)-2-hydroxyethyl]amino}-5,6,7,8-tetrahydro-2-naphthalenyl)oxy]benzoic acid hydrochloride in dog at 0.1 or 0.20 mg/kg, po by cassette dosing assay; type: ADME, organism-based, Canis lupus familiaris; set-up: dose 0.2 mg/kg, route oral; settings: in vivo, 0.2 mg/kg
Canis familiaris [12] = experiment: Ratio of AUC for drug to AUC for 3-[((7S)-7-{[(2R)-2-(3-Chlorophenyl)-2-hydroxyethyl]amino}-5,6,7,8-tetrahydro-2-naphthalenyl)oxy]benzoic acid hydrochloride in dog at 0.1 or 0.20 mg/kg, po by cassette dosing assay; type: ADME, organism-based, Canis lupus familiaris; set-up: dose 0.2 mg/kg, route oral; settings: in vivo, 0.2 mg/kg
[13] = Cmax in dog at 0.2 mg/kg, po by cassette assay; type: ADME, organism-based, Canis lupus familiaris; set-up: dose 0.2 mg/kg, route oral; settings: in vivo
[14] = AUC (0 to 24 hrs) in dog at 0.2 mg/kg, po by cassette assay; type: ADME, organism-based, Canis lupus familiaris; set-up: time < 24 hr, dose 0.2 mg/kg, route oral; settings: plasma
[15] = Terminal half life in dog at 0.1 mg/kg, iv by cassette assay; type: ADME, organism-based, Canis lupus familiaris; set-up: dose 0.1 mg/kg, route intravenous; settings: in vivo
[16] = Oral bioavailability in dog at 0.1 mg/kg by cassette assay; type: ADME, organism-based, Canis lupus familiaris; settings: in vivo
[17] = Total clearance in dog at 0.1 mg/kg, iv by cassette assay; type: ADME, organism-based, Canis lupus familiaris; set-up: dose 0.1 mg/kg, route intravenous; settings: in vivo

Sequence of Beta-1 adrenergic receptor (P08588 whole entry): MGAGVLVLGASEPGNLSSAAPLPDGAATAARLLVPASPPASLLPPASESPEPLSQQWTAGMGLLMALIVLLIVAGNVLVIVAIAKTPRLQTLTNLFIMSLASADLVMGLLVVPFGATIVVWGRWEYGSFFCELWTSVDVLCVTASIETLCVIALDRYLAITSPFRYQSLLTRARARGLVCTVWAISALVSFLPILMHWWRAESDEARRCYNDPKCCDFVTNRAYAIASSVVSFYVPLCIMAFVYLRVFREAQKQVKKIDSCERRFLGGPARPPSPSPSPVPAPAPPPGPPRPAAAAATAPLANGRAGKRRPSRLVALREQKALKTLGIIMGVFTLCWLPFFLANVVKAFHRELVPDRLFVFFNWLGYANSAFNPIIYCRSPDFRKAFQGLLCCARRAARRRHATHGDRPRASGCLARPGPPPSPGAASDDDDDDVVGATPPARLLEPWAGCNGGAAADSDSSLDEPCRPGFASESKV

SMILES	EC50 [1] [nM]	EC50 [2] [nM]	Ratio EC50 (Homo sapiens)	further results
O=C(O)c1ccc(Oc2ccc3c(c2)C[C@@H](NC[C@H](O)c2cccc(Cl)c2)CC3)cc1	> 100	37	> 2.7	
CCCNc1cc(Oc2ccc3c(c2)C[C@@H](NC[C@H](O)c2cccc(Cl)c2)CC3)cc(C(=O)O)c1	173	0.77	224	
O=C(O)c1ccc(-c2ccc3c(c2)C[C@@H](NC[C@H](O)c2cccc(Cl)c2)CCC3)cc1	> 100	> 100		
CC(C)Oc1cc(-c2ccc3c(c2)C[C@@H](NC[C@H](O)c2ccc(Cl)cc2)CC3)ccc1C(=O)O	310	0.7	443	
O=C(O)c1ccc(-c2ccc3c(c2)C[C@@H](NC[C@H](O)c2cccc(Cl)c2)CC3)s1	> 1000	2.4	> 417	
O=C(O)c1cc(Oc2ccc3c(c2)C[C@@H](NC[C@H](O)c2cccc(Cl)c2)CC3)ccc1Cl	> 1000	16	> 62	
O=C(O)c1cccc(Oc2ccc3c(c2)C[C@@H](NC[C@H](O)c2cccc(Cl)c2)CCC3)c1	160	4.5	35	AUC(0-t) at 24 h [4]: 538 ng·h/mL; clearance [5]: 6.8 mL/min/kg; bioavailability [6]: 69%; Cmax [7]: 65.7 ng/mL; half-life [8]: 3 h; EC50 [3]: > 1000 nM
O=C(O)c1cc(NC2CCCCC2)cc(Oc2ccc3c(c2)C[C@@H](NC[C@H](O)c2cccc(Cl)c2)CC3)c1	69	0.78	88	
O=C(O)c1ccc(-c2ccc3c(c2)C[C@@H](NC[C@H](O)c2ccc(Cl)cc2)CC3)c(F)c1	980	1.4	700	Ratio (Canis familiaris [9]): 1.13; Ratio AUC (Canis familiaris [10]): 1.01
O=C(O)c1cccc(Oc2ccc3c(c2)C[C@@H](NC[C@H](O)c2ccc(Cl)nc2)CC3)c1	140	4.1	34	
O=C(O)c1cccc(-c2ccc3c(c2)C[C@@H](NC[C@H](O)c2cccc(Cl)c2)CC3)c1	> 100	29	> 3.4	
O=C(O)c1ccc(Oc2ccc3c(c2)C[C@@H](NC[C@H](O)c2cccc(Cl)c2)CCC3)cc1	> 100	> 100		
COc1cc(-c2ccc3c(c2)C[C@@H](NC[C@H](O)c2ccc(Cl)cc2)CC3)ccc1C(=O)O	> 1000	0.78	> 1280	Ratio (Canis familiaris [9]): 0.62; Ratio AUC (Canis familiaris [10]): 0.53
O=C(O)c1ccc(-c2ccc3c(c2)C[C@@H](NC[C@H](O)c2ccc(Cl)nc2)CC3)cc1	200	0.85	> 1260	Ratio (Canis familiaris [9]): 0.73; Ratio AUC (Canis familiaris [10]): 0.53; EC50 [3]: > 1000 nM
O=C(O)c1ccc(-c2ccc3c(c2)C[C@@H](NC[C@H](O)c2cccc(Cl)c2)CC3)nc1	490	9.6	51	
CC(=O)Nc1cc(Oc2ccc3c(c2)C[C@@H](NC[C@H](O)c2cccc(Cl)c2)CC3)cc(C(=O)O)c1	360	1.3	277	Ratio (Canis familiaris [11]): 0.1; Ratio AUC (Canis familiaris [12]): 0.06
O=C(O)c1cc(NC2CCOCC2)cc(Oc2ccc3c(c2)C[C@@H](NC[C@H](O)c2cccc(Cl)c2)CC3)c1	340	1	340	Ratio (Canis familiaris [11]): 0.06; Ratio AUC (Canis familiaris [12]): 0.02
O=C(O)c1cccnc1Oc1ccc2c(c1)C[C@@H](NC[C@H](O)c1cccc(Cl)c1)CC2	> 100	49	> 2	
O=C(O)COc1cccc(-c2ccc3c(c2)C[C@@H](NC[C@H](O)c2cccc(Cl)c2)CC3)c1	> 100	10	> 10	
O=C(O)c1ccc(-c2ccc3c(c2)C[C@@H](NC[C@H](O)c2cccnc2)CC3)cc1	> 1000	13	> 77	
O=C(O)c1ccc(Oc2ccc3c(c2)C[C@@H](NC[C@H](O)c2cccc(Cl)c2)CC3)nc1	70	1.47	50	AUC(0-t) at 24 h [4]: 320 ng·h/mL; clearance [5]: 10.8 mL/min/kg; bioavailability [6]: 61%; Cmax [7]: 49 ng/mL; half-life [8]: 2.8 h; EC50 [3]: > 1000 nM
O=C(O)COc1cccc(Oc2ccc3c(c2)C[C@@H](NC[C@H](O)c2cccc(Cl)c2)CC3)c1	> 100	22	> 4.5	
O=C(O)c1ccc(Oc2ccc3c(c2)C[C@@H](NC[C@H](O)c2cccc(Cl)c2)CC3)s1	670	5.7	117	EC50 [3]: > 1000 nM
Cc1ccc([C@@H](O)CN[C@H]2CCc3ccc(-c4ccc(C(=O)O)cc4)cc3C2)cc1	> 1000	0.79	> 1260	Ratio (Canis familiaris [9]): 1.06; Ratio AUC (Canis familiaris [10]): 0.77

Second part, led by results:

EC50 [1] [nM]	EC50 [2] [nM]	Ratio EC50 (Homo sapiens)	SMILES	further results
775	3.5	221	O=C(O)c1ccc(-c2ccc3c(c2)C[C@@H](NC[C@H](O)c2ccc(C(F)(F)F)cc2)CC3)cc1	EC50 [3]: > 1000 nM
620	38	16.3	O=C(O)c1ccc(-c2ccc3c(c2)C[C@@H](NC[C@H](O)c2ccccc2Cl)CC3)cc1	
270	1.8	155	CN(C)c1cc(Oc2ccc3c(c2)C[C@@H](NC[C@H](O)c2ccc(Cl)nc2)CC3)cc(C(=O)O)c1	
> 100	24	> 4.2	O=C(O)COc1ccc(Oc2ccc3c(c2)C[C@@H](NC[C@H](O)c2cccc(Cl)c2)CC3)cc1	
> 1000	33	> 30	O=C(O)c1ccc(-c2ccc3c(c2)C[C@@H](NC[C@H](O)c2ccc(Cl)c(Cl)c2)CC3)cc1	
650	0.81	802	O=C(O)c1ccc(-c2ccc3c(c2)C[C@@H](NC[C@H](O)c2ccc(Cl)cc2)CC3)cc1F	
890	5.3	168	COc1cc(Oc2ccc3c(c2)C[C@@H](NC[C@H](O)c2cccc(Cl)c2)CC3)cc(C(=O)O)c1	EC50 [3]: > 1000 nM
> 100	20	> 5	O=C(O)c1cccc(Oc2ccc3c(c2)C[C@@H](NC[C@H](O)c2cccnc2)CC3)c1	Ratio (Canis familiaris [11]): 0.5; Ratio AUC (Canis familiaris [12]): 0.32
> 1000	2.8	> 357	O=C(O)c1ccc(-c2ccc3c(c2)C[C@@H](NC[C@H](O)c2cccc(Cl)c2)CC3)cc1	clearance [5]: 1.2 mL/min/kg; bioavailability [6]: 71%; Cmax [13]: 97.4 ng/mL; Ratio (Canis familiaris [9]): 1; AUC(0-t) at 24 h [14]: 1980 ng·h/mL; half-life [8]: 12.2 h; Ratio AUC (Canis familiaris [10]): 1; EC50 [3]: > 1000 nM
> 1000	5.8	> 170	O=C(O)COc1ccc(-c2ccc3c(c2)C[C@@H](NC[C@H](O)c2cccc(Cl)c2)CC3)cc1	clearance [5]: 8.3 mL/min/kg; bioavailability [6]: 48%; Cmax [13]: 21.8 ng/mL; AUC(0-t) at 24 h [14]: 197 ng·h/mL; half-life [8]: 1.9 h; EC50 [3]: > 1000 nM
> 1000	6	> 166	COc1ccc(Oc2ccc3c(c2)C[C@@H](NC[C@H](O)c2cccc(Cl)c2)CC3)cc1C(=O)O	EC50 [3]: > 1000 nM
> 1000	9	> 111	Cc1ccc(Oc2ccc3c(c2)C[C@@H](NC[C@H](O)c2cccc(Cl)c2)CC3)cc1C(=O)O	
330	4.8	69	O=C(O)c1cccc(Oc2ccc3c(c2)C[C@@H](NC[C@H](O)c2ccc(Cl)cc2)CC3)c1	
> 1000	28	> 36	N#Cc1ccc([C@@H](O)CN[C@H]2CCc3ccc(-c4ccc(C(=O)O)cc4)cc3C2)cc1	
825	1.8	458	Cc1cc(-c2ccc3c(c2)C[C@@H](NC[C@H](O)c2ccc(Cl)cc2)CC3)ccc1C(=O)O	
> 1000	3.2	> 312	CN(C)c1cc(Oc2ccc3c(c2)C[C@@H](NC[C@H](O)c2cccc(Cl)c2)CC3)cc(C(=O)O)c1	half-life [15]: 3.94 h; Ratio (Canis familiaris [11]): 1.18; bioavailability [16]: > 95%; Ratio AUC (Canis familiaris [12]): 0.83; Cmax [13]: 189 ng/mL; clearance [17]: 2.38 mL/min/kg; AUC(0-t) at 24 h [14]: 1470 ng·h/mL; EC50 [3]: > 1000 nM
480	3.2	150	Nc1cc(Oc2ccc3c(c2)C[C@@H](NC[C@H](O)c2cccc(Cl)c2)CC3)cc(C(=O)O)c1	Ratio (Canis familiaris [11]): 0.26; Ratio AUC (Canis familiaris [12]): 0.2
800	2	400	Cc1cc(C(=O)O)ccc1-c1ccc2c(c1)C[C@@H](NC[C@H](O)c1ccc(Cl)cc1)CC2	Ratio (Canis familiaris [9]): 0.72; Ratio AUC (Canis familiaris [10]): 0.64
